# Test results published in patent US12129237B2, “Substituted diaminocarboxamide and diaminocarbonitrile pyrimidines, compositions thereof, and methods of treatment therewith” (SIGNAL PHARMACEUTICALS, LLC, priority 2011, dated 2024).
# Target: T1, JNK1 (Homo sapiens, UniProt P45983)
# T1 construct: purchased Carna Biosciences
# Assay: JNK1 biochemical assays (one or more of: time resolved fluorescence, Z'-LYTE Cascade, radioactive)
# Conditions: tested in one or more of the JNK1 biochemical assays; read-out: Act. Level (JNK1 biochemical assay IC50 activity level)
# T1 sequence (P45983 whole entry): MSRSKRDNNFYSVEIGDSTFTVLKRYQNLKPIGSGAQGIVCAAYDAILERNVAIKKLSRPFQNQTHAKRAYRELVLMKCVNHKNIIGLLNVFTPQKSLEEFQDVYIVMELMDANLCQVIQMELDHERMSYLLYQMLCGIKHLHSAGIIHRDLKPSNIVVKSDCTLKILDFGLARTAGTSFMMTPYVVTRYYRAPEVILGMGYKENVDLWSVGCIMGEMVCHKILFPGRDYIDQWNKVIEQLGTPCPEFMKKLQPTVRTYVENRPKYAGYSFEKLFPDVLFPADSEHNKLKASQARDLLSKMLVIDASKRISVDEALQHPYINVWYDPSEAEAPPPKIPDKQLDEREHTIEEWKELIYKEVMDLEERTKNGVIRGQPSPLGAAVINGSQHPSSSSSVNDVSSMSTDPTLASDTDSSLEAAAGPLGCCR
row,SMILES,IC50 [nM]
1,"CO[C@@H]1CCC[C@H](Nc2ncc(C(N)=O)c(N[C@@H]3CCC[C@H](O)C3)n2)CC1 [Example A-162, 4-((1R,3S)-3-hydroxycyclohexylamino)-2-((1S,4R)-4-methoxycycloheptylamino)pyrimidine-5-carboxamide]",< 200
2,"CO[C@H]1CCC[C@@H](Nc2ncc(C(N)=O)c(N[C@@H]3CCC[C@H](O)C3)n2)CC1 [Example A-163, 4-((1R,3S)-3-hydroxycyclohexylamino)-2-((1R,4S)-4-methoxycycloheptylamino)pyrimidine-5-carboxamide]",< 200
3,"CO[C@H]1CC[C@H](Nc2ncc(C(N)=O)c(NC3CCC3)n2)CC1 [Example A-164, 4-(cyclobutylamino)-2-((1r,4r)-4-methoxycyclohexylamino)pyrimidine-5-carboxamide]",< 200
4,"NC(=O)c1cnc(N[C@H]2CC[C@H](OC(F)F)CC2)nc1N[C@@H]1CCCC[C@H](O)C1 [Example A-165, 2-((1r,4R)-4-(difluoromethoxy)cyclohexylamino)-4-((1R,3S)-3-hydroxycycloheptylamino)pyrimidine-5-carboxamide]",< 200
5,"NC(=O)c1cnc(NC2CCOCC2)nc1N[C@@H]1CCCC[C@H](O)C1 [Example A-166, 4-((1R,3S)-3-hydroxycycloheptylamino)-2-(tetrahydro-2H-pyran-4-ylamino)pyrimidine-5-carboxamide]",< 200
6,"CCO[C@H]1CC[C@H](Nc2ncc(C(N)=O)c(N[C@@H]3CCOC3)n2)CC1 [Example A-167, 2-((1r,4R)-4-ethoxycyclohexylamino)-4-((R)-tetrahydrofuran-3-ylamino)pyrimidine-5-carboxamide]",< 200

# Now from value to compound:
row,IC50 [nM],SMILES
1,< 200,"C[C@]1(O)CCC[C@@H](Nc2nc(N[C@H]3CC[C@H](OCC(F)(F)F)CC3)ncc2C(N)=O)C1 [Example A-168, 4-((1R,3S)-3-hydroxy-3-methylcyclohexylamino)-2-((1r,4R)-4-(2,2,2-trifluoroethoxy)cyclohexylamino)pyrimidine-5-carboxamid]"
2,< 200,"C[C@]1(O)CCC[C@@H](Nc2nc(NC3CCOCC3)ncc2C(N)=O)C1 [Example A-169, 4-((1R,3S)-3-hydroxy-3-methylcyclohexylamino)-2-(tetrahydro-2H-pyran-4-ylamino)pyrimidine-5-carboxamide]"
3,< 200,"C[C@]1(O)CCC[C@@H](Nc2nc(N[C@H]3CC[C@H](OC(F)F)CC3)ncc2C(N)=O)C1 [Example A-170, 2-((1r,4R)-4-(difluoromethoxy)cyclohexylamino)-4-((1R,3S)-3-hydroxy-3-methylcyclohexylamino)pyrimidine-5-carboxamide]"
4,< 200,"NC(=O)c1cnc(N[C@H]2CC[C@H](O)CC2)nc1N[C@@H]1CCCC[C@H](O)C1 [Example A-171, 4-((1R,3S)-3-hydroxycycloheptylamino)-2-((1r,4R)-4-hydroxycyclohexylamino)pyrimidine-5-carboxamide]"
5,< 200,"CCO[C@H]1CC[C@H](Nc2ncc(C(N)=O)c(N[C@@H]3CC[C@@H](C)[C@H](O)C3)n2)CC1 [Example A-172, 2-((1r,4R)-4-ethoxycyclohexylamino)-4-((1R,3R,4R)-3-hydroxy-4-methylcyclohexylamino)pyrimidine-5-carboxamide]"
6,< 200,"C[C@@H]1CC[C@@H](Nc2nc(N[C@H]3CC[C@H](OC(F)F)CC3)ncc2C(N)=O)C[C@H]1O [Example A-173, 2-((1r,4R)-4-(difluoromethoxy)cyclohexylamino)-4-((1R,3R,4R)-3-hydroxy-4-methylcyclohexylamino)pyrimidine-5-carboxamide]"
7,< 200,"NC(=O)c1cnc(N[C@H]2CC[C@H](OCC(F)(F)F)CC2)nc1NC1CCC1 [Example A-174, 4-(cyclobutylamino)-2-((1r,4r)-4-(2,2,2-trifluoroethoxy)cyclohexylamino)pyrimidine-5-carboxamide]"
8,< 200,"NC(=O)c1cnc(N[C@H]2CC[C@H](O)CC2)nc1NC1CC1 [Example A-175, 4-(cyclopropylamino)-2-((1r,4r)-4-hydroxycyclohexylamino)pyrimidine-5-carboxamide]"
